Reference: ChEMBL document CHEMBL2434905, “2-Amino-6-chloro-3,4-dihydroquinazoline: A novel 5-HT3 receptor antagonist with antidepressant character” (Bioorg Med Chem Lett, 2013)

Columns and labels:
[1] = biological target: Neuronal acetylcholine receptor; alpha3/beta2 (Homo sapiens, UniProt P17787+P32297); experiment: Displacement of [3H]-epibatidine from human alpha3beta2 nAChR transfected in HEK293 cells by scintillation counting analysis; assay type: cell-based
[2] = biological target: Alpha-2A adrenergic receptor (Homo sapiens, UniProt P08913); experiment: Displacement of [3H]Rauwolscine from human recombinant alpha2A-adrenoceptor expressed in MDCK cells after 90 mins by scintillation counting analysis; assay type: cell-based
[3] = biological target: 5-hydroxytryptamine receptor 4 (Homo sapiens, UniProt Q13639); experiment: Displacement of [[3H]GR113808 from human recombinant 5-HT4 receptor after 90 mins by scintillation counting analysis
Chain of 5-hydroxytryptamine receptor 4 (Q13639 whole entry): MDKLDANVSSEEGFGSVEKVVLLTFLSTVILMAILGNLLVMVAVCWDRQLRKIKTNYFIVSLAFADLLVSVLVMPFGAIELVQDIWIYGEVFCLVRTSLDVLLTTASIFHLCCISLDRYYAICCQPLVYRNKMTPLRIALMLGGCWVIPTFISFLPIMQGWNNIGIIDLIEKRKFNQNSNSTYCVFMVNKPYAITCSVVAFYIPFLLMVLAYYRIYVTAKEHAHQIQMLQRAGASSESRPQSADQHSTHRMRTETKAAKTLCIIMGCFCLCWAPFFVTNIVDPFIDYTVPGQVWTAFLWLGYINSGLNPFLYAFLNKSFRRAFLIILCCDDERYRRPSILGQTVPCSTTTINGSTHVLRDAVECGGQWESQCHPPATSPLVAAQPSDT

[4] = biological target: 5-hydroxytryptamine receptor 2A (Homo sapiens, UniProt P28223); experiment: Displacement of [3H]Ketanserin from human recombinant 5-HT2A receptor expressed in HEK cells after 90 mins by scintillation counting analysis; assay type: cell-based, HEK293
[5] = biological target: 5-hydroxytryptamine receptor 6 (Homo sapiens, UniProt P50406); experiment: Displacement of [3H]LSD from human recombinant 5-HT6 receptor expressed in HEK cells after 90 mins by scintillation counting analysis; assay type: cell-based, HEK293
Chain of 5-hydroxytryptamine receptor 6 (P50406 whole entry): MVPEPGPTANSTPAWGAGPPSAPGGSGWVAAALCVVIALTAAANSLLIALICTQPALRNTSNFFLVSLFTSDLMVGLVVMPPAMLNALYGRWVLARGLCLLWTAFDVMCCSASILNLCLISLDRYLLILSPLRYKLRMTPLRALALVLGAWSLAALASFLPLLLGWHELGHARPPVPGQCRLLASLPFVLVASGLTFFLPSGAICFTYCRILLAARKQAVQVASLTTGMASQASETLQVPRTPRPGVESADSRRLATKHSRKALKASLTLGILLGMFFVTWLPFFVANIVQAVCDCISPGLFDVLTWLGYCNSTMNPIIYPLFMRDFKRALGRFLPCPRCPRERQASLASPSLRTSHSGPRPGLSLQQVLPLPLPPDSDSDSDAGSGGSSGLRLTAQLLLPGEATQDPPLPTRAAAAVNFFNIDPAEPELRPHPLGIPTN

D(1B) dopamine receptor = D(1B) dopamine receptor (Homo sapiens, UniProt P21918); experiment: Displacement of [3H]SCH23390 from human recombinant dopamine D5 receptor expressed in HEK cells after 90 mins by scintillation counting analysis; assay type: cell-based, HEK293
Chain of D(1B) dopamine receptor (P21918 whole entry): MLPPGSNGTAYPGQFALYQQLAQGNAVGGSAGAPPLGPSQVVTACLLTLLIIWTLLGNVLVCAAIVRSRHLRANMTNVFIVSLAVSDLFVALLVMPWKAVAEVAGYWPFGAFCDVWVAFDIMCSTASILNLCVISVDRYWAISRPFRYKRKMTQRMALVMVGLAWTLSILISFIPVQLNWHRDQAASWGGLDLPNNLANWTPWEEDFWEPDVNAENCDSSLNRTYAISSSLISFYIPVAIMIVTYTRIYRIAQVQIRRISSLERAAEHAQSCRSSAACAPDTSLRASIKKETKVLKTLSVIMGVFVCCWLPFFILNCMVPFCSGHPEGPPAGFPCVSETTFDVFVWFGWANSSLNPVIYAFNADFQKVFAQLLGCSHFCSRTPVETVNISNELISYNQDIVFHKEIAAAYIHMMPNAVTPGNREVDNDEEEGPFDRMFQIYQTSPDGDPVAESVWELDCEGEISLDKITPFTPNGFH

[6] = biological target: Sodium-dependent dopamine transporter (Homo sapiens, UniProt Q01959); experiment: Displacement of [3H]WIN35428 from human recombinant sodium-dependent dopamine transporter expressed in HEK cells after 90 mins by scintillation counting analysis; assay type: cell-based, HEK293
Chain of Sodium-dependent dopamine transporter (Q01959 whole entry): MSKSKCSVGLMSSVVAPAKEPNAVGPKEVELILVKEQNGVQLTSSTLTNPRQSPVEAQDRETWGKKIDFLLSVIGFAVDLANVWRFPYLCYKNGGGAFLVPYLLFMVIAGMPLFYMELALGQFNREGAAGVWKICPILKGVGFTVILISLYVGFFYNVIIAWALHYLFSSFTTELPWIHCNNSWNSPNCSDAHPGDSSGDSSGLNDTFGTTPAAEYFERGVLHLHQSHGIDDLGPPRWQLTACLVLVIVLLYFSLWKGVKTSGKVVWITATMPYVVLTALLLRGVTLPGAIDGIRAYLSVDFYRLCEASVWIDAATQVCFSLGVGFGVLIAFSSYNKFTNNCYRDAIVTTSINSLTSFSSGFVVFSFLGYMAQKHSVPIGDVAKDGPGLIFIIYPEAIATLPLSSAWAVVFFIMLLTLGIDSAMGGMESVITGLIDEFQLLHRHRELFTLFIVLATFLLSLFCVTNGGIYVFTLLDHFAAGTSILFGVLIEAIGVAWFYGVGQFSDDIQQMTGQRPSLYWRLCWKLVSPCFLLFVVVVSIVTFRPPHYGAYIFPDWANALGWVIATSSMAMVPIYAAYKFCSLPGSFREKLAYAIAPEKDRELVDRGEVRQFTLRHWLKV

Mus musculus [7] = experiment: Antidepressant activity in ip dosed ICR mouse assessed as immobility time by tail suspension test; assay type: functional
Mu-type opioid receptor = Mu-type opioid receptor (Homo sapiens, UniProt P35372); experiment: Displacement of [3H]DAMGO from human recombinant mu opioid receptor expressed in HEK cells after 90 mins by scintillation counting analysis; assay type: cell-based, HEK293
Chain of Mu-type opioid receptor (P35372 whole entry): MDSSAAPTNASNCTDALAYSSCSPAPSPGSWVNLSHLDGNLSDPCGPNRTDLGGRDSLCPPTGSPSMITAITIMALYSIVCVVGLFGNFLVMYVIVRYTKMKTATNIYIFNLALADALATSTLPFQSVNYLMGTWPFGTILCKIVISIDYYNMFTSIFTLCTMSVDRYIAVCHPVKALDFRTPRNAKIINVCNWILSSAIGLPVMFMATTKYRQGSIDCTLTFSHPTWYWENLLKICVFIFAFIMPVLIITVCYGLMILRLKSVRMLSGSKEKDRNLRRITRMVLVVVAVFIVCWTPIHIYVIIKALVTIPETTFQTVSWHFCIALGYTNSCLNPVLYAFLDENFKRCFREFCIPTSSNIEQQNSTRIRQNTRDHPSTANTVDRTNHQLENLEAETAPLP

[8] = biological target: Muscarinic acetylcholine receptor M4 (Homo sapiens, UniProt P08173); experiment: Binding affinity to human recombinant muscarinic M4 receptor expressed in CHO cells after 90 mins by radioligand displacement assay; assay type: cell-based
Histamine H1 receptor = Histamine H1 receptor (Homo sapiens, UniProt P35367); experiment: Displacement of [3H]Pyrilamine from human recombinant histamine H1 receptor expressed in HEK cells after 90 mins by scintillation counting analysis; assay type: cell-based, HEK293
Chain of Histamine H1 receptor (P35367 whole entry): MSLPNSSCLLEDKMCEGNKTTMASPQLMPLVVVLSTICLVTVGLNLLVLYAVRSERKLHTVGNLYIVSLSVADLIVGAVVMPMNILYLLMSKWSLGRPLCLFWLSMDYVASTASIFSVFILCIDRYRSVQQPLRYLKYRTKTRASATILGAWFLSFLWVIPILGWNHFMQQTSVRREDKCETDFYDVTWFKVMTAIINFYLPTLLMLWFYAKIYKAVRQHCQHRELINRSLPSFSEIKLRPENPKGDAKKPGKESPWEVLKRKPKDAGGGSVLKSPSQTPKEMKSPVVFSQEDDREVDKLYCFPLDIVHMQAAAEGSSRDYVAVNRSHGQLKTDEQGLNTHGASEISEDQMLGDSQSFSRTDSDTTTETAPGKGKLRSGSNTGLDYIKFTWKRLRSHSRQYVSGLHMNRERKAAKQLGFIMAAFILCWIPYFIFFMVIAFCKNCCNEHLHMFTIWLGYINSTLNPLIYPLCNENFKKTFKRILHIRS

[9] = biological target: T1, 5-hydroxytryptamine receptor 3A (Homo sapiens, UniProt P46098); experiment: Displacement of [3H]GR65630 from human 5-HT3 receptor expressed in African green monkey COS cells after 90 mins by scintillation counting analysis; assay type: cell-based
T1 sequence (P46098 whole entry): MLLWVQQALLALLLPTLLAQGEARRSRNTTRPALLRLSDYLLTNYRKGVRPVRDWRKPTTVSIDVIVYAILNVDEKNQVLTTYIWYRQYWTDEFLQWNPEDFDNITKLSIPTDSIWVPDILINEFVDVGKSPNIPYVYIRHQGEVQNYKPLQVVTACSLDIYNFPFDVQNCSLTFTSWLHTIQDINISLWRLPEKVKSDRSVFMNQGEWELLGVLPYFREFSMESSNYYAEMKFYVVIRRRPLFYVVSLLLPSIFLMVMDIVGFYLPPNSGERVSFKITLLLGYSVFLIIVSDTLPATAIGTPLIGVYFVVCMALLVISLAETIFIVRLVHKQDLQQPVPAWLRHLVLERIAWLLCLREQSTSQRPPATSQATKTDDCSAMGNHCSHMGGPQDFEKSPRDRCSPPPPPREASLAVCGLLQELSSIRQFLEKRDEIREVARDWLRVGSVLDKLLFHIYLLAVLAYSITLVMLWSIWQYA

[10] = biological target: T2, 5-hydroxytryptamine receptor 3A (Mus musculus, UniProt P23979); experiment: Antagonist activity at mouse 5-HT3A receptor expressed in Xenopus oocytes assessed as reduction of 5HT-induced current by two-electrode voltage clamp technique; assay type: cell-based, Oocyte
T2 sequence (P23979 whole entry): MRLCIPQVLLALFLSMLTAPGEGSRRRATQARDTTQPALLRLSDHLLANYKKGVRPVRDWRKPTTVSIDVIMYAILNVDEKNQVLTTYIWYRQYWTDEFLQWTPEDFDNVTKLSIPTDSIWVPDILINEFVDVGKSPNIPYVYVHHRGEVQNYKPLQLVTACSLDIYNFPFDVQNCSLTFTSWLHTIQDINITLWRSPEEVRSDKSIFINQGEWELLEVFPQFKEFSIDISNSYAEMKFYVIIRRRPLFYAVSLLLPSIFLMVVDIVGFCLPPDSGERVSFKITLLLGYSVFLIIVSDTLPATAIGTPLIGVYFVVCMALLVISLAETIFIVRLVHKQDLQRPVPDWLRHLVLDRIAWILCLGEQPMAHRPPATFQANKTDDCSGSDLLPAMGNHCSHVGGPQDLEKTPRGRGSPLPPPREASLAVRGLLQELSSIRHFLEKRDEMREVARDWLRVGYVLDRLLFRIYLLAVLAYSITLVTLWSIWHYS

Histamine H3 receptor = Histamine H3 receptor (Homo sapiens, UniProt Q9Y5N1); experiment: Displacement of [3H]-alpha-methylhistamine from human recombinant histamine H3 receptor expressed in HEK cells after 90 mins by scintillation counting analysis; assay type: cell-based, HEK293
Chain of Histamine H3 receptor (Q9Y5N1 whole entry): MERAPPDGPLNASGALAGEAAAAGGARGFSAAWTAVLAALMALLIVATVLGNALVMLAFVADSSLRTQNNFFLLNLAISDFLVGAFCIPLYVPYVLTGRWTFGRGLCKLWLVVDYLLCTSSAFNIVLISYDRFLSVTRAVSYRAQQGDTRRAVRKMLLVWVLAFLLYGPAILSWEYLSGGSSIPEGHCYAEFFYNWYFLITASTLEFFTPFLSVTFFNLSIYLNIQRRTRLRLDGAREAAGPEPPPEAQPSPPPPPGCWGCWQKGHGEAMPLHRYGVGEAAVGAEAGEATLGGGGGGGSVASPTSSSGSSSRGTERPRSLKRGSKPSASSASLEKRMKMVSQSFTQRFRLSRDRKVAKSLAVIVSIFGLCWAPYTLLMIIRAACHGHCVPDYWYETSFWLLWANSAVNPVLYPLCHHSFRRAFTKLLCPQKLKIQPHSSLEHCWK

[11] = biological target: T1, 5-hydroxytryptamine receptor 3A; experiment: Displacement of [3H]GR65630 from 5-HT3 receptor (unknown origin) expressed in mouse/rat NG108-15 cells after 30 mins by liquid scintillation counting analysis; assay type: cell-based
[12] = biological target: Beta-3 adrenergic receptor (Homo sapiens, UniProt P13945); experiment: Binding affinity to human recombinant beta3-adrenoceptor expressed in HEK cells after 90 mins by radioligand displacement assay; assay type: cell-based, HEK293
[13] = biological target: 5-hydroxytryptamine receptor 5A (Homo sapiens, UniProt P47898); experiment: Displacement of [3H]LSD from human recombinant 5-HT5A receptor expressed in CHO cells after 90 mins by scintillation counting analysis; assay type: cell-based
Chain of 5-hydroxytryptamine receptor 5A (P47898 whole entry): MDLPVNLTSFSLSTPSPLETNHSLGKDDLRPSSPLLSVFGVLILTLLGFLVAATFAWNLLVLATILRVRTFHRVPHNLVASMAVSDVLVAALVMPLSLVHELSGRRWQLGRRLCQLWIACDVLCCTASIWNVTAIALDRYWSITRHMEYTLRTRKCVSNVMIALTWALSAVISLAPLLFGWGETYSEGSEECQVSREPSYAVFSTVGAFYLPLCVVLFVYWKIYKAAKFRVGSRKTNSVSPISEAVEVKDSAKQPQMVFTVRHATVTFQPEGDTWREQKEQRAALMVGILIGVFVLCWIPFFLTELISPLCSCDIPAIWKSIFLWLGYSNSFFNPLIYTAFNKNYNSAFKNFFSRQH

D(2) dopamine receptor = D(2) dopamine receptor (Homo sapiens, UniProt P14416); experiment: Displacement of [[3H]N-methylspiperone from human recombinant dopamine D2 receptor expressed in human fibroblasts after 90 mins by scintillation counting analysis
[14] = Displacement of [3H]DTG from sigma2 receptor (unknown origin) expressed in rat PC12 cells after 90 mins by scintillation counting analysis; assay type: cell-based, Homo sapiens; conditions: pc-12
[15] = Lipophilicity, log P of the compound by HPLC analysis; assay type: physicochemical
[16] = biological target: Kappa-type opioid receptor (Homo sapiens, UniProt P41145); experiment: Displacement of [3H]U69593 from kappa opioid receptor (unknown origin) expressed in HEK cells after 90 mins by scintillation counting analysis; assay type: cell-based, HEK293
Chain of Kappa-type opioid receptor (P41145 whole entry): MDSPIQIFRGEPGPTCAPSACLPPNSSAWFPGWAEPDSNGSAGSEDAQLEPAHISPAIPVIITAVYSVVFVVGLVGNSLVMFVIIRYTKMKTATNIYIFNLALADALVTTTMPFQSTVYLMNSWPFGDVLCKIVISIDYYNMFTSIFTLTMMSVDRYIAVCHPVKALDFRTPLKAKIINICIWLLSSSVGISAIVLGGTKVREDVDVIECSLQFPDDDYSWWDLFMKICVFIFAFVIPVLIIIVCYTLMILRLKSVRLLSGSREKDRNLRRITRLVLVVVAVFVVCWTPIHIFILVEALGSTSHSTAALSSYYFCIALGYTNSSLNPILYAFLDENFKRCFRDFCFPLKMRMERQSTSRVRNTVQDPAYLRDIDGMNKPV

[17] = biological target: 5-hydroxytryptamine receptor 1D (Homo sapiens, UniProt P28221); experiment: Displacement of [3H]5-CT from human recombinant 5-HT1D receptor expressed in HEK cells after 90 mins by scintillation counting analysis; assay type: cell-based, HEK293
Chain of 5-hydroxytryptamine receptor 1D (P28221 whole entry): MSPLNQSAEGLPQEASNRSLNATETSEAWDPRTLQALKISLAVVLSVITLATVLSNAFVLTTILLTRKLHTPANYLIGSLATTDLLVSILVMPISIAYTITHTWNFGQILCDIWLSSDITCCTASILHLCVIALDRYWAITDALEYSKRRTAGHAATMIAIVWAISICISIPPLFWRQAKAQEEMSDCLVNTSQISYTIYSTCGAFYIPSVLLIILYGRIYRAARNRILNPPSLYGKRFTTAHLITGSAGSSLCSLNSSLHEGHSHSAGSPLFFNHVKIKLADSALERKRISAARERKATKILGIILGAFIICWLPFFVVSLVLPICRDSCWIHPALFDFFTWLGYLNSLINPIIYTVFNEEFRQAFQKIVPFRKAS

[18] = biological target: Beta-2 adrenergic receptor (Homo sapiens, UniProt P07550); experiment: Displacement of [3H]CGP12177 from human recombinant beta2-adrenoceptor expressed in HEK cells after 90 mins by scintillation counting analysis; assay type: cell-based, HEK293
[19] = biological target: Muscarinic acetylcholine receptor M1 (Homo sapiens, UniProt P11229); experiment: Binding affinity to human recombinant muscarinic M1 receptor expressed in CHO cells after 90 mins by radioligand displacement assay; assay type: cell-based
Mus musculus [20] = experiment: Toxicity in ICR mouse assessed as total movement time at 1 to 3 mg/kg, ip after 15 to 45 mins by locomotor activity assay relative to vehicle-treated control; assay type: organism-based; parameters: route intraperitoneal; conditions: in vivo
[21] = biological target: Muscarinic acetylcholine receptor M3 (Homo sapiens, UniProt P20309); experiment: Binding affinity to human recombinant muscarinic M3 receptor expressed in CHO cells after 90 mins by radioligand displacement assay; assay type: cell-based
Chain of Muscarinic acetylcholine receptor M3 (P20309 whole entry): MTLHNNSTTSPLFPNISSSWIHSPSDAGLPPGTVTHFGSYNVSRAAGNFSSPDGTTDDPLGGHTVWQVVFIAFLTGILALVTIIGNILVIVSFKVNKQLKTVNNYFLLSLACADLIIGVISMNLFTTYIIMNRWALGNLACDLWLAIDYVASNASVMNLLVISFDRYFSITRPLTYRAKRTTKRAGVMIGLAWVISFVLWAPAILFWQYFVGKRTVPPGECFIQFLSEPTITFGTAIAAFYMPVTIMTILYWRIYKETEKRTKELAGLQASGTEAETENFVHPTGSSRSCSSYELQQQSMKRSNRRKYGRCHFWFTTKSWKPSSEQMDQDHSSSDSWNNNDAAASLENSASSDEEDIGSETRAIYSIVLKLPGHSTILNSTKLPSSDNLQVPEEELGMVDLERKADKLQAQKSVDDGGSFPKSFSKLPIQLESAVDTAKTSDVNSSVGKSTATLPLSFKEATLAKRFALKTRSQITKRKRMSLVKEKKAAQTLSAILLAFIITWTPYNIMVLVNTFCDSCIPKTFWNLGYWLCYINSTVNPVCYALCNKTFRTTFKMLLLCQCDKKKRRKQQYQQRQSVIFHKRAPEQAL

[22] = biological target: Alpha-1A adrenergic receptor (Homo sapiens, UniProt P35348); experiment: Displacement of [3H]Prazosin from human recombinant alpha1A-adrenoceptor after 90 mins by scintillation counting analysis

For `Cl.NC1=Nc2ccc(Cl)cc2CN1`, the Ki [1] was greater than 10 µM, the Ki [2] was 0.283 µM and the Ki [3] was greater than 10 µM. For the same compound, the Ki [4] was 1.32 µM, the Ki [5] was greater than 10 µM and the Ki (D(1B) dopamine receptor) was greater than 10 µM. It also gave a Ki [6] greater than 10 µM, an ED50 (Mus musculus [7]) of 0.23 mg/kg and a Ki (Mu-type opioid receptor) greater than 10 µM. For the same compound, the Ki [8] was greater than 10 µM, the Ki (Histamine H1 receptor) was greater than 10 µM and the Ki [9] was 0.08 µM. It also gave an IC50 [10] of 0.26 µM, a Ki (Histamine H3 receptor) greater than 10 µM and a Ki [11] of 0.034 µM. The Ki [12] was greater than 10 µM, the Ki [13] was 0.466 µM and the Ki (D(2) dopamine receptor) was greater than 10 µM. The Ki [14] was 2.65 µM, the pKi [14] was 5.6 and the logP [15] was 1.86. For the same compound, the Ki [16] was greater than 10 µM, the Ki [17] was 0.684 µM and the Ki [18] was greater than 10 µM. The Ki [19] was greater than 10 µM, the Activity (Mus musculus [20]) was “Non-toxic” and the Ki [21] was greater than 10 µM. For the same compound, the Ki [22] was greater than 10 µM.
